Experimental data taken from patent US7354904B2, “Bacteriocin inducer peptides” (priority 2005, dated 2008).

How the values were obtained:
[1] = Isoelectric point by isoelectrofocusing; type: physicochemical
Excerpt: FIGS. 1A and 1B are photographs showing the direct detection of signal peptide and bacteriocin OR-7 after SDS-PAGE (A) and isoelectrofocusing (B). […] In FIG. 1A Lane 1-Molecular Mass Markers LMW Range 2,100-12,500 (Amersham Pharmacia Biotech): 2,100; 5,780; 8,400; 12,500 Da. […] Lane 3 contained pI standards (Protein Test Mixture, I Marker Proteins, Serva): 10.0, 9.2, 8.1, 6.9, 5.5, 4.3.
FIGS. 2A and 2B are photographs showing direct detection of signal peptide and bacteriocin 50-52 after SDS-PAGE (A) and isoelectrofocusing (B). […] Lane 3 contained pI standards (Protein Test Mixture, I Marker Proteins, Serva): 10.0, 8.1, 7.9, 6.4, 5.5, 4.3, 4.1, and 3.8.
FIGS. 3A and 3B are photographs showing the direct detection of signal peptide and bacteriocin 760 after SDS-PAGE(A) and isoelectrofocusing (B). […] Lane 3 contained pI standards (Protein Test Mixture, I Marker Proteins, Serva): 10.0, 8.1, 7.9, 6.4, 5.5, 4.3, 4.1, and 3.8.
At the end of 14 hours the supernatant from the cultures was placed into 500 ml centrifuge flasks with about one milliliter of regenerated Sepharose SP Fast Flow (v/v 500: 1). This was incubated for approximately 1 hour at room temperature with stirring. The suspension was then washed with about 100 ml of a 0.2 M TRIS-HCl buffer pH approximately 6.4. The bacteriocins were eluted by centrifugation with about 100 ml of approximately 0.2 M K2HPO4, pH of about 5.8 at about 7,000×g for approximately 10 minutes. Antagonistic activity of the bacteriocin fractions against C. jejuni and S. enteritidis was assessed using a Spot Test as described above. The level of purity of the bacteriocin fractions was determined by SDS-PAGE. The isoelectric points of the fractions were determined by isoelectric focusing. Concentrations of protein for all bacteriocin fractions were determined at 215 nm using a spectrophotometer.

[2] = tested on: Streptococcus cricetus LWP 760; experiment: Influence of signal peptide on bacteriocin 760 production, flask culture (fraction protein at 215 nm, activity by Spot Test against C. jejuni and S. enteritidis); type: cell-based
[3] = tested on: Enterococcus faecium LWP 50-52; experiment: Influence of signal peptide on bacteriocin 50-52 production, flask culture (fraction protein at 215 nm, activity by spot-test against C. jejuni and S. enteritidis); type: cell-based
[4] = LWP 760 + LWP 320, 0.1 mg LWP 50-52 peptide
[5] = LWP 50-52 + LWP 320, peptide 0.001 mg/ml
[6] = LWP 50-52 + LWP 320, peptide 0.001 mg/ml added after about 2 hours
[7] = LWP 50-52 + LWP 320, peptide 0.001 mg/ml added after about 4 hours
[8] = LWP 50-52 + LWP 320, peptide 0.001 mg/ml added after about 6 hours
[9] = LWP 50-52 + LWP 320, peptide 0.01 mg/ml
[10] = LWP 50-52 + LWP 320, peptide 0.01 mg/ml added after about 2 hours
[11] = LWP 50-52 + LWP 320, peptide 0.01 mg/ml added after about 4 hours
[12] = LWP 50-52 + LWP 320, peptide 0.01 mg/ml added after about 6 hours
[13] = LWP 50-52 + LWP 320, peptide 0.1 mg/ml
[14] = LWP 50-52 + LWP 320, peptide 0.1 mg/ml added after about 2 hours
[15] = LWP 50-52 + LWP 320, peptide 0.1 mg/ml added after about 4 hours
[16] = LWP 50-52 + LWP 320, peptide 0.1 mg/ml added after about 6 hours
[17] = LWP 50-52, no inducer, peptide 0.001 mg/ml
[18] = LWP 50-52, no inducer, peptide 0.001 mg/ml added after about 2 hours
[19] = LWP 50-52, no inducer, peptide 0.001 mg/ml added after about 4 hours
[20] = LWP 50-52, no inducer, peptide 0.001 mg/ml added after about 6 hours
[21] = LWP 50-52, no inducer, peptide 0.01 mg.ml added after about 4 hours
[22] = LWP 50-52, no inducer, peptide 0.01 mg.ml added after about 6 hours
[23] = LWP 50-52, no inducer, peptide 0.01 mg/ml
[24] = LWP 50-52, no inducer, peptide 0.01 mg/ml added after about 2 hours
[25] = LWP 50-52, no inducer, peptide 0.1 mg/ml
[26] = LWP 50-52, no inducer, peptide 0.1 mg/ml added after about 2 hours
[27] = LWP 50-52, no inducer, peptide 0.10 mg/ml added after about 4 hours
[28] = LWP 50-52, no inducer, peptide 0.10 mg/ml added after about 6 hours

Sequence: TNVTKSWWVLAGCNQVVASNCNCGNVKGLT (listed as Enterococcus faecium) [LWP 50-52 Signal Peptide, signal peptide isolated from Enterococcus faecium LWP 50-52, stimulates bacteriocin 50-52 production]
- isoelectric point (pI) [1]: about 8.1
- Activity [2, 4]: 1,638,840 AU/ml
- Increase in amount of protein vs. control [2, 4]: 1
- Protein Concentration [2, 4]: 0.30 mg/mL
- Protein Produced from 1 liter Culture Fluid [2, 4]: 99 mg
- Specific Activity [2, 4]: 5,462,666 Au/mg
- yield of bacteriocin 760 versus control ([2]; signal peptide of another strain added to LWP 760 + LWP 320): did not increase
- Activity [3, 5]: 819,200 AU/ml
- Protein Concentration [3, 5]: 0.25 mg/mL
- Protein increase vs. Control [3, 5]: 1
- Specific Activity [3, 5]: 3,276,800 AU/mg
- mg protein/liter [3, 5]: 82.5 mg protein/liter
- Activity [3, 6]: 819,200 AU/ml
- Protein Concentration [3, 6]: 0.25 mg/mL
- Protein increase vs. Control [3, 6]: 1
- Specific Activity [3, 6]: 3,276,800 AU/mg
- mg protein/liter [3, 6]: 82.5 mg protein/liter
- Activity [3, 7]: 819,200 AU/ml
- Protein Concentration [3, 7]: 0.25 mg/mL
- Protein increase vs. Control [3, 7]: 1
- Specific Activity [3, 7]: 3,276,800 AU/mg
- mg protein/liter [3, 7]: 82.5 mg protein/liter
- Activity [3, 8]: 819,200 AU/ml
- Protein Concentration [3, 8]: 0.25 mg/mL
- Protein increase vs. Control [3, 8]: 1
- Specific Activity [3, 8]: 3,276,800 AU/mg
- mg protein/liter [3, 8]: 82.5 mg protein/liter
- Activity [3, 9]: 1,638,400 AU/ml
- Protein Concentration [3, 9]: 1.0 mg/mL
- Protein increase vs. Control [3, 9]: 4
- Specific Activity [3, 9]: 1,638,400 AU/mg
- mg protein/liter [3, 9]: 330.0 mg protein/liter
- Activity [3, 10]: 3,276,800 AU/ml
- Protein Concentration [3, 10]: 1.07 mg/mL
- Protein increase vs. Control [3, 10]: 4.28
- Specific Activity [3, 10]: 3,062,429 AU/mg
- mg protein/liter ([3]; LWP 50-52 + LWP 320, peptide 0.01 mg/ml added after about 2 hours, listed as LWP 320 Signal Peptide): 353.1 mg protein/liter
- mg protein/liter ([3]; LWP 50-52 + LWP 320, peptide 0.01 mg/ml added after about 2 hours, listed as signal peptide from LWP 50-52): about 353.1 mg protein/liter
- Activity [3, 11]: 1,638,400 AU/ml
- Protein Concentration [3, 11]: 1.0 mg/mL
- Protein increase vs. Control [3, 11]: 4
- Specific Activity [3, 11]: 1,638,400 AU/mg
- mg protein/liter [3, 11]: 330.0 mg protein/liter
- Activity [3, 12]: 1,638,400 AU/ml
- Protein Concentration [3, 12]: 1.0 mg/mL
- Protein increase vs. Control [3, 12]: 4
- Specific Activity [3, 12]: 1,638,400 AU/mg
- mg protein/liter [3, 12]: 330.0 mg protein/liter
- Activity [3, 13]: 819,200 AU/ml
- Protein Concentration [3, 13]: 0.25 mg/mL
- Protein increase vs. Control [3, 13]: 1
- Specific Activity [3, 13]: 3,276,800 AU/mg
- mg protein/liter [3, 13]: 82.5 mg protein/liter
- Activity [3, 14]: 819,200 AU/ml
- Protein Concentration [3, 14]: 0.25 mg/mL
- Protein increase vs. Control [3, 14]: 1
- Specific Activity [3, 14]: 3,276,800 AU/mg
- mg protein/liter [3, 14]: 82.5 mg protein/liter
- Activity [3, 15]: 819,200 AU/ml
- Protein Concentration [3, 15]: 0.25 mg/mL
- Protein increase vs. Control [3, 15]: 1
- Specific Activity [3, 15]: 3,276,800 AU/mg
- mg protein/liter [3, 15]: 82.5 mg protein/liter
- Activity [3, 16]: 819,200 AU/ml
- Protein Concentration [3, 16]: 0.25 mg/mL
- Protein increase vs. Control [3, 16]: 1
- Specific Activity [3, 16]: 3,276,800 AU/mg
- mg protein/liter [3, 16]: 82.5 mg protein/liter
- Activity [3, 17]: 819,200 AU/ml
- Protein Concentration [3, 17]: 0.25 mg/mL
- Protein increase vs. Control [3, 17]: 1
- Specific Activity [3, 17]: 3,276,800 AU/mg
- mg protein/liter [3, 17]: 82.5 mg protein/liter
- Activity [3, 18]: 819,200 AU/ml
- Protein Concentration [3, 18]: 0.25 mg/mL
- Protein increase vs. Control [3, 18]: 1
- Specific Activity [3, 18]: 3,276,800 AU/mg
- mg protein/liter [3, 18]: 82.5 mg protein/liter
- Activity [3, 19]: 819,200 AU/ml
- Protein Concentration [3, 19]: 0.25 mg/mL
- Protein increase vs. Control [3, 19]: 1
- Specific Activity [3, 19]: 3,276,800 AU/mg
- mg protein/liter [3, 19]: 82.5 mg protein/liter
- Activity [3, 20]: 819,200 AU/ml
- Protein Concentration [3, 20]: 0.25 mg/mL
- Protein increase vs. Control [3, 20]: 1
- Specific Activity [3, 20]: 3,276,800 AU/mg
- mg protein/liter [3, 20]: 82.5 mg protein/liter
- Activity [3, 21]: 819,200 AU/ml
- Protein Concentration [3, 21]: 0.27 mg/mL
- Protein increase vs. Control [3, 21]: 1.08
- Specific Activity [3, 21]: 3,034,074 AU/mg
- mg protein/liter [3, 21]: 89.1 mg protein/liter
- Activity [3, 22]: 819,200 AU/ml
- Protein Concentration [3, 22]: 0.27 mg/mL
- Protein increase vs. Control [3, 22]: 1.08
- Specific Activity [3, 22]: 3,034,074 AU/mg
- mg protein/liter [3, 22]: 89.1 mg protein/liter
- Activity [3, 23]: 819,200 AU/ml
- Protein Concentration [3, 23]: 0.27 mg/mL
- Protein increase vs. Control [3, 23]: 1.08
- Specific Activity [3, 23]: 3,034,074 AU/mg
- mg protein/liter [3, 23]: 89.1 mg protein/liter
- Activity [3, 24]: 819,200 AU/ml
- Protein Concentration [3, 24]: 0.31 mg/mL
- Protein increase vs. Control [3, 24]: 1.24
- Specific Activity [3, 24]: 2,642,580 AU/mg
- mg protein/liter [3, 24]: 102.3 mg protein/liter
- Activity [3, 25]: 819,200 AU/ml
- Protein Concentration [3, 25]: 0.25 mg/mL
- Protein increase vs. Control [3, 25]: 1
- Specific Activity [3, 25]: 3,276,800 AU/mg
- mg protein/liter [3, 25]: 82.5 mg protein/liter
- Activity [3, 26]: 819,200 AU/ml
- Protein Concentration [3, 26]: 0.27 mg/mL
- Protein increase vs. Control [3, 26]: 1.08
- Specific Activity [3, 26]: 3,034,074 AU/mg
- mg protein/liter [3, 26]: 89.1 mg protein/liter
- Activity [3, 27]: 819,200 AU/ml
- Protein Concentration [3, 27]: 0.27 mg/mL
- Protein increase vs. Control [3, 27]: 1.08
- Specific Activity [3, 27]: 3,034,074 AU/mg
- mg protein/liter [3, 27]: 89.1 mg protein/liter
- Activity [3, 28]: 819,200 AU/ml
- Protein Concentration [3, 28]: 0.26 mg/mL
- Protein increase vs. Control [3, 28]: 1.04
- Specific Activity [3, 28]: 3,150,769 AU/mg
- mg protein/liter [3, 28]: 85.8 mg protein/liter
